Four molecules from patent publication US20190054054A1, “Methods reducing or preventing oxidation of high density lipoprotein (HDL)” (Amarin Pharmaceuticals Ireland Limited, priority 2017, published 2019) can be followed below.

Where “and” joins values, the source holds several entries; their conditions need not be identical. Equal values may be shown once.

Assay [1] can be described thus: Membrane cholesterol domain peak intensity, x-ray diffraction of POPC/cholesterol membranes (Example 9). The conditions noted are these: 1.5:1 C/P mole ratio; for % change Vs control / Relative Cholesterol Domain Preak Intensity: drug-to-phospholipid mole ratio 1:30; for Relative Cholesterol Domain Preak Intensity: POPC and cholesterol. On the procedure:
The fatty acid stock solutions were stored at −20° C. until use. […] Samples were shell-dried under nitrogen gas and placed under vacuum for 3 hours to remove residual solvent at room temperature. After desiccation, each sample was resuspended in saline buffer (0.5 mM HEPES, 154 mM NaCl, pH 7.3) to yield a final phospholipid concentration of 2.5 mg/mL. Lipid suspensions were then vortexed for 3 minutes at ambient temperature to form MLVs. Membrane lipid vesicles were oriented for x-ray diffraction analysis as described by others (e.g., Herbette et al., Biophys. […] Briefly, a 100 μL aliquot of each MLV preparation (containing 250 μg MLV) was transferred to a Lucite® sedimentation cell fitted with an aluminum foil substrate designed to collect MLVs into a single membrane pellet upon centrifugation. […] After centrifugal orientation, sample supernatants were aspirated and aluminum foil substrates, each supporting a single membrane pellet, were removed from the sedimentation cells. Sample pellets were dried for 5-10 minutes at ambient conditions, mounted onto curved glass supports, and placed in hermetically-sealed, brass or glass containers (for immediate analysis or temporary storage, respectively). All x-ray diffraction experiments were conducted at 20° C., 74% relative humidity. The latter was established by exposing membrane samples to saturated solutions of L-(+)-tartaric acid (K2C4H4O6.½H2O) for at least 1 hour prior to experimental analysis. Oriented membrane samples were aligned at grazing incidence with respect to a collimated, mono-chromatic CuKα x-ray beam (Kα1 and Kα2 unresolved; λ=1.54 Å) produced by a Rigaku Rotaflex RU-200, high-brilliance microfocus generator (Rigaku-MSC, The Woodlands, Tex.) as previously described (Mason et al., Biophys. J., vol. 55(4), pages 769-778 (1989)). The samples were initially subjected to x-ray diffraction analysis at least 12 hours after formation of the membrane pellets and retested for up to several days. Analytical x-rays were generated by electron bombardment of a rotating copper anode and are filtered through a thin nickel foil to provide monochromatic radiation (λ=1.54 Å). Collimation of the x-ray beam was achieved using a single Franks mirror. Diffraction data were collected on a one-dimensional, position-sensitive electron detector (Hecus X-ray Systems, Graz, Austria) at a sample-to-detector distance of 150 mm from the sample site. The d-space for any given membrane multi bilayer is a measurement of the unit cell periodicity of the membrane lipid bilayer (e.g., the distance from the center of one lipid bilayer to the next including surface hydration), and is calculated from Bragg's Law, h λ=2 d sin θ, where h is the diffraction order, λ is the wavelength of the x-ray radiation (1.54 Å), d is the membrane lipid bilayer unit cell periodicity, and θ is the Bragg angle equal to one-half the angle between the incident beam and scattered beam. […] Routines written in Origin 8.6 (OriginLab Corporation, Northampton, Mass.) were used to determine total peak area (associated with all diffraction peaks in a given pattern) against which the second-order cholesterol domain peak was normalized. The raw data collected in this study was normalized using internal. Data were presented as mean+S.E.M. for (N) separate samples or treatment groups. Differences between groups were analyzed using the two-tailed, Student's t-test (for comparisons between only two groups) or ANOVA followed by Dunnett or Student-Newman-Keuls multiple comparisons post-hoc analysis (for comparisons between three or more groups). Alpha error was set to 0.05 in this study.

The test system of another assay is HUVECs exposed to oxLDL. The experiment in a line: NO and ONOO^− release from HUVECs exposed to oxLDL, nanosensors (Example 8). As to conditions: oxLDL 20 min, then treatment for 1 hour; EPA 10 μM, ATM 1.0 μM. The class given is cell-based, human. On the procedure: Human umbilical vein endothelial cells (HUVECs) were isolated into primary cultures from female donors by Clonetics (San Diego, Calif.) and purchased as proliferating cells. All cell culture donors were healthy, with no pregnancy or prenatal complications. […] The confluent cells (4 to 5×10^5 cells/35 mm dish) were placed with minimum essential medium containing 3 mM L-arginine and 0.1 mM BH4 [(6R)-5,6,7,8-tetrahydrobiopterin]. Before experimental use, the cells (from second or third passage) were rinsed twice with Tyrode-HEPES buffer with 1.8 mM CaCl2).
The omega-3 fatty acids (O3FAs) cis-5,8,11,14,17-eicosapentaenoic acid (EPA) and docosahexaenoic acid (DHA) were purchased from Sigma-Aldrich (St. Louis, Mo.) and prepared initially at 11 mM in redistilled ethanol. Primary and secondary O3FA stock solutions were prepared and stored under argon at −20° C.
The oxLDL causes eNOS uncoupling and endothelial dysfunction to reproduce disease-like conditions. 25 Venous blood from healthy normolipidemic volunteers was collected into Na-EDTA (1 mg/mL blood) vacuum tubes after a 12-hour fast. Plasma was immediately separated by centrifugation at 3,000 g for 10 minutes at 4° C.
Tris-NaCl buffer was added to the dialyzed LDL to adjust the protein concentration to 30 mg/mL. A 1-mL aliquot of 20 μM CuSO4 was added to 1 mL of dialyzed normal LDL.
Oxidation was monitored by the use of measurements of TBARS. Briefly, LDL was incubated with thiobarbituric acid (0.5 wt/vol, in H2SO4, 50 mM) for 30 minutes at 100° C. […] TBARS concentration was determined as malondialdehyde (MDA) equivalents with the use of an MDA standard curve.
Concurrent measurements of NO and ONOO^− were performed with tandem electrochemical nanosensors combined into one working unit with a total diameter of 200-400 nm. Their design was based on previously developed and chemically modified carbon-fiber technology. Each of the nanosensors was made by depositing a sensing material on the tip of a carbon fiber (length 4 to 5 μm, diameter 100-200 nm). The fibers were sealed with nonconductive epoxy and electrically connected to copper wires with conductive silver epoxy. Conductive films of polymeric Ni(II) tetrakis (3-methoxy-4-hydroxyphenyl) porphyrin and Mn(III) [2.2] paracyclophanylporphyrin were used for the NO and ONOO^− sensors, respectively.
The amperometric method (with a response time of 0.1 ms) provides a quantitative signal (current) that is directly proportional to changes (from basal levels) in NO or ONOO^− concentration. Amperometric measurements were performed with a Gamry III double-channel potentiostat. Basal NO or ONOO^− levels were measured by differential pulse voltammetry in separate experiments.
All measurements of NO and ONOO^− were performed on intact endothelial cells. The NO/ONOO^− nanosensor module was positioned 5±2 μm from the surface of each individual endothelial cell using a computer-controlled M3301 micromanipulator (x-y-z resolution of 0.2 μm) and microscope (both from World Precision Instruments, Berlin, Germany) fitted with a CD camera.
Endothelial basal media was used for all the treatments. Controls were supplied with an equivalent volume of endothelial basal media.
Data are presented as mean±S.D. for (N) separate samples or experiments. Differences between groups were analyzed using the two-tailed, Student t-test (for comparisons between only two groups) or ANOVA followed by Student-Newman-Keuls multiple comparisons post-hoc analysis (for comparisons between three or more groups). Only differences with probability values less than 0.05 were considered significant.

Another assay concerns HUVECs. The experiment in a line: NO release from HUVECs incubated with agent-treated oxidized sdLDL (Example 12). Format: cell-based, human. The conditions noted are these: oxidized sdLDL pretreated with agent at 10.0 μM. Here is the method: All samples, with the exception of non-oxidized sdLDL controls, were subjected to copper-induced oxidation for 1 hour. Human umbilical vein endothelial cells (HUVECs) were incubated with the various sdLDL samples, stimulated with calcium, and monitored for nitric oxide (NO) and peroxynitrite (ONOO^−) release using nanosensor technology.

Regarding `CCCCC/C=C\C/C=C\C/C=C\C/C=C\CCCC(=O)O` [AA, arachidonic acid], in assay [1], the “% change Vs control” value was −45.2% and −46.8 ± 15.2%; the “Relative Cholesterol Domain Preak Intensity” value is given as 22.5 ± 4.3.
For `CC/C=C\C/C=C\C/C=C\CCCCCCCC(=O)O` [ALA, α-linolenic acid], in assay [1], the “% change Vs control” value is −46.8% and −45.2 ± 11.3%; the “Relative Cholesterol Domain Preak Intensity” value is reported as 23.2 ± 0.6.
Regarding `CC1(C)[C@@H](O[C@H]2O[C@H](C(=O)O)[C@@H](O)[C@H](O)[C@H]2O[C@@H]2O[C@H](C(=O)O)[C@@H](O)[C@H](O)[C@H]2O)CC[C@]2(C)[C@H]3C(=O)C=C4[C@@H]5C[C@@](C)(C(=O)O)CC[C@]5(C)CC[C@@]4(C)[C@]3(C)CC[C@@H]12` [Glyc, glycyrrhizin], in assay [1] (1:30), the “reduction in cholesterol domain peaks as compared to vehicle treatment” value worked out at 54.9%. Further, in assay [1], the “% change Vs control” value was −54.9 ± 12.3% and the “Relative Cholesterol Domain Preak Intensity” value was determined as 19.1 ± 1.2. Also, the “Relative Cholesterol Domain Preak Intensity” value in assay [1] (listed as glycyrrhizin) came out at 19.1±1.2.
Take `CC(C)OC(=O)C(C)(C)Oc1ccc(C(=O)c2ccc(Cl)cc2)cc1` [fenofibrate]: in the assay with HUVECs exposed to oxLDL, the “ONOO^−” value was found to be 299 ± 24. For the same molecule, the “reduction of NO release as compared to vehicle-treated, oxidized sdLDL” value in the assay on HUVECs was 21%.
